Reference: US20070135470A1, “Utilization of vinpocetine to avoid complications in particular those associated to hearing which occur with epilepsy, and treatment thereof” (UNIVERSIDAD NACIONAL AUTONOMA DE MEXICO, priority 2003, published 2007)

Legend:
Type in all cases: in vivo, guinea pig
[1] = tested on: hearing loss induced by PTZ in guinea pigs; test: ABR (auditory) threshold in PTZ-induced epilepsy; settings: vinpocetine 2 mg/kg or vehicle 4 h before PTZ
Procedure: (§1) Experiments were performed in pigmented adult male guinea pigs initially weighing 349±38 g. ABRs recordings were used to evaluate the hearing status of each animal and EEG recordings to evaluate changes in cortical excitability. The ABR and EEG recordings were obtained following a method that we have previously reported (Nekrassov and Sitges, 2003). The Institutional Animal Use and Care Committee approved all experimental procedures.
(§2) Three types of recordings were performed in the anaesthetized animals, namely the ABR recordings elicited by a stimulus of high intensity (100 dB), the ABR recordings for determination of the auditory threshold and the EEG recordings.
(§3) Determination of ABR thresholds. ABR recordings elicited by stimuli of progressively lower intensity (in dB) were used for determining the hearing threshold. Threshold is defined as the lowest stimulus intensity (in dB) at which the P3 wave of the ABR could still be recorded in three consecutive trials.
(§4) Student's t-test was used for the evaluation of the differences between results obtained before and at the specified times after the injection of the convulsing agents. The criterion for statistical significance for all measures was P≦0.05. All data are expressed as means±standard error of the mean. In figures and tables the symbol * is used for indicating statistic significant differences.
(§5) Eight male guinea pigs were entered into this study. PTZ was dissolved in saline and vinpocetine in a saline acidified (with HCl) adjusted to pH 4 (with NaOH). Four hours after injecting guinea pigs with vehicle (acidified saline used to dissolve vinpocetine) the animals were anaesthetized and a first set of ABR and EEG recordings was taken before the injection (i.p) of the convulsing agent, PTZ. The animals were injected with PTZ (100 mg/kg) and about 2 min after injecting PTZ (ictal period) the EEG recording was taken. Then the other series of ABR and EEG recordings were taken at specific times within the post-ictal period. After two weeks the same series of recordings was taken but instead vehicle the animals were injected with vinpocetine (2 mg/kg) 4 hours before the injection of PTZ.

[2] = tested on: epileptic cortical activity induced by PTZ in guinea pigs; test: EEG recordings of cortical activity in PTZ-induced epilepsy; settings: PTZ 100 mg/kg i.p.
Procedure: as §1, §2, §5
Vinpocetine inhibits all the changes induced by PTZ on the EEG. […] This dramatic change on the cortical activity induced by PTZ in the anaesthetized animals during convulsions is followed by a typical pattern of cortical activity characterized by rhythmic spike bursts of high amplitude. The duration time of this typical pattern of cortical activity, that is not accompanied by convulsions is referred as the post-ictal period.

[3] = tested on: epilepsy induced by PTZ in guinea pigs; test: ABR wave parameters (amplitude, latency) in PTZ-induced epilepsy; settings: 100 dB, vinpocetine 2 mg/kg or vehicle 4 h before PTZ
Procedure: as §1, §2
(§6) Determination of ABR wave parameters. The latency and amplitude of each wave component of the ABR elicited by a stimulus of 100 dB with pure tone frequencies of 4 and 8 kHz was measured in all the ABR recordings obtained under the different experimental conditions at the specified times. The latency of each ABR wave (in ms) refers to the time interval between the onset of the auditory stimulus and the positive peak of the wave. The onset of the stimulus is indicated by the vertical arrow at the bottom of the recordings on FIG. 1. The peak amplitude (in μV) of each wave of the ABR is the difference between the positive peak of the wave and the reference baseline (trace between the stimulus and the appearance of the first ABR wave on FIG. 1).
as §4, §5

[4] = tested on: hearing loss induced by 4-AP in guinea pigs; test: ABR (auditory) threshold in 4-AP-induced epilepsy; settings: vinpocetine 2 mg/kg or vehicle 1 h before 4-AP
Procedure: as §1, §2, §3, §4
(§7) Five guinea pigs were entered into the study. One hour after injecting guinea pigs with vehicle (acidified saline used to dissolve vinpocetine) the animals were anaesthetized and a first set of ABR and EEG recordings was taken before the injection (i.p) of the convulsing agent, 4-AP. The animals were injected with 4-AP (2 mg/kg) and about 20 min after injecting 4-AP (ictal period) the EEG recording was taken. Then the other series of ABR and EEG recordings were taken at specific times within the post-ictal period. After two weeks the same series of recordings were repeated but instead vehicle the animals were injected with vinpocetine (2 mg/kg) 1 hour before the injection of 4-AP.

[5] = tested on: epilepsy induced by 4-AP in guinea pigs; test: ABR wave parameters (amplitude, latency) in 4-AP-induced epilepsy; settings: 100 dB, vinpocetine 2 mg/kg or vehicle 1 h before 4-AP
Procedure: as §1, §2, §6, §4, §7

[6] = tested on: epileptic cortical activity induced by 4-AP in guinea pigs; test: EEG recordings of cortical activity in 4-AP-induced epilepsy; settings: 4-AP 2 mg/kg i.p.
Procedure: as §1, §2, §7
Vinpocetine inhibits all the changes induced by 4-AP on the EEG. […] This change on the cortical activity elicited by 4-AP for the ictal period is followed by the post-ictal period characterized by isolated spikes of higher amplitude that appear on the EEG about one hour after the injection of 4-AP. […] The top traces of FIG. 6 show the characteristic EEG recordings taken before the injection of 4-AP in the animals pre-injected with vehicle (a) and in the animals pre-injected with vinpocetine (b). The changes induced by 4-AP on for the ictal period are shown in the second trace on FIG. 6a. In the vinpocetine treated animals 4-AP was unable to induce the ictal activity (second trace on FIG. 6b).

[7] = 4 kHz, 30 min after PTZ 100 mg/kg i.p.
[8] = 4 kHz, 50 min after PTZ 100 mg/kg i.p.
[9] = 8 kHz, 30 min after PTZ 100 mg/kg i.p.
[10] = 8 kHz, 50 min after PTZ 100 mg/kg i.p.
[11] = animals pre-injected with vehicle
[12] = 4 kHz, 30 min after 4-AP 2 mg/kg i.p.
[13] = 4 kHz, 60 min after 4-AP 2 mg/kg i.p.
[14] = 8 kHz, 30 min after 4-AP 2 mg/kg i.p.
[15] = 8 kHz, 60 min after 4-AP 2 mg/kg i.p.

Question: With `C1CCc2nnnn2CC1` [PTZ, pentylenetetrazole] as the compound, how does the auditory threshold [1, 7] read?
Answer: The auditory threshold was 28 ± 2.0 * dB.

Question: And the auditory threshold [1, 8]?
Answer: Its auditory threshold is 29 ± 1.0 * dB.

Question: And the auditory threshold [1, 9]?
Answer: Its auditory threshold is 17 ± 2.0 * dB.

Question: What about the auditory threshold [1, 10] of the same compound?
Answer: The auditory threshold was 21 ± 2.4 * dB.

Question: And the “onset of seizure activity in the EEG after injection” value [2]?
Answer: Its value is “within the two first min”.

Question: What about the “seizure induction in anaesthetized animals” value [2, 11] of the same compound?
Answer: Its value is “developed generalized seizures”.

Question: What about the “P4 wave peak amplitude of the ABR” value ([3]; 4 kHz, 10 min after PTZ 100 mg/kg i.p.) of the same compound?
Answer: Its value is 1.70 ± 0.5 * μV.

Question: What about the “P4 wave peak amplitude of the ABR” value ([3]; 4 kHz, 20 min after PTZ 100 mg/kg i.p.) of the same compound?
Answer: Its value is 2.12 ± 0.4 * μV.

Question: What about the “P4 wave peak amplitude of the ABR” value [3, 7] of the same compound?
Answer: Its value is 1.84 ± 0.4 * μV.

Question: And the “P4 wave peak amplitude of the ABR” value [3, 8]?
Answer: Its value is 2.11 ± 0.3 * μV.

Question: What about the “P4 wave peak amplitude of the ABR” value ([3]; 8 kHz, 10 min after PTZ 100 mg/kg i.p.) of the same compound?
Answer: Its value is 2.07 ± 0.4 * μV.

Question: And the “P4 wave peak amplitude of the ABR” value ([3]; 8 kHz, 20 min after PTZ 100 mg/kg i.p.)?
Answer: The value was 1.99 ± 0.3 * μV.

Question: And the “P4 wave peak amplitude of the ABR” value [3, 9]?
Answer: The value was 1.92 ± 0.3 * μV.

Question: And the “P4 wave peak amplitude of the ABR” value [3, 10]?
Answer: The value was 1.51 ± 0.5 * μV.

Question: Which auditory threshold [4, 12] does the source give for `Nc1ccncc1` [4-AP, 4-aminopyridine] here?
Answer: The auditory threshold was 20 ± 2.0 * dB.

Question: What about the auditory threshold [4, 13] of the same compound?
Answer: Its auditory threshold is 30 ± 3.5 * dB.

Question: What about the auditory threshold [4, 14] of the same compound?
Answer: The auditory threshold was 10.0 ± 2.0 * dB.

Question: What about the auditory threshold [4, 15] of the same compound?
Answer: The auditory threshold was 23.8 ± 6.3 * dB.

Question: What about the “latency of the P4 wave of the ABR” value [5, 12] of the same compound?
Answer: Its value is 3.78 ± 0.09 * ms.

Question: What about the “latency of the P4 wave of the ABR” value [5, 13] of the same compound?
Answer: Its value is 3.78 ± 0.09 * ms.

Question: And the “latency of the P4 wave of the ABR” value ([5]; 4 kHz, 80 min after 4-AP 2 mg/kg i.p.)?
Answer: The value was 3.78 ± 0.09 * ms.

Question: What about the “latency of the P4 wave of the ABR” value ([5]; 4 kHz, 100 min after 4-AP 2 mg/kg i.p.) of the same compound?
Answer: The value was 3.75 ± 0.10 * ms.

Question: And the “latency of the P4 wave of the ABR” value [5, 14]?
Answer: Its value is 3.51 ± 0.13 ms.

Question: And the “latency of the P4 wave of the ABR” value [5, 15]?
Answer: The value was 3.80 ± 0.10 * ms.

Question: And the “latency of the P4 wave of the ABR” value ([5]; 8 kHz, 80 min after 4-AP 2 mg/kg i.p.)?
Answer: Its value is 3.80 ± 0.10 * ms.

Question: And the “latency of the P4 wave of the ABR” value ([5]; 8 kHz, 100 min after 4-AP 2 mg/kg i.p.)?
Answer: The value was 3.83 ± 0.12 * ms.

Question: And the “time of appearance of seizure (spike-sharp wave) activity in the EEG after injection” value [6]?
Answer: Its value is “about 20 min”.

Question: And the “seizure induction in anaesthetized animals” value [6, 11]?
Answer: Its value is “developed generalized seizures”.
